Growth data for three compounds are collected here from ChEMBL document CHEMBL4004838, “Design and synthesis of novel phenyl -1, 4-beta-carboline-hybrid molecules as potential anticancer agents” (Eur J Med Chem, 2017).

Holding throughout (type): functional
The subject of one assay is NCI-H322M. Kind of assay: Growth inhibition of human NCI-H322M cells assessed as cell growth at 10^-5 M incubated for 48 hrs by sulforhodamine B assay relative to control. The note with it: read-out: Activity. (In general: Sulforhodamine B stains cellular protein and so reports cell mass.)
The next assay concerns UO-31. Kind of assay: Growth inhibition of human UO31 cells assessed as cell growth at 10^-5 M incubated for 48 hrs by sulforhodamine B assay relative to control. The note with it: UO-31, 48 h, read-out: Activity.
A further assay relates to DU-145. Kind of assay: Growth inhibition of human DU145 cells assessed as cell growth at 10^-5 M incubated for 48 hrs by sulforhodamine B assay relative to control. The note with it: DU-145, 48 h, read-out: Activity.
Another assay relates to SW-620. Briefly: Growth inhibition of human SW620 cells assessed as cell growth at 10^-5 M incubated for 48 hrs by sulforhodamine B assay relative to control. The note with it: SW-620, 48 h, read-out: Activity.
For a further assay, the system named is SN12C. Kind of assay: Growth inhibition of human SN12C cells assessed as cell growth at 10^-5 M incubated for 48 hrs by sulforhodamine B assay relative to control. The note with it: read-out: Activity.
The next assay relates to SF-268. Briefly: Growth inhibition of human SF268 cells assessed as cell growth at 10^-5 M incubated for 48 hrs by sulforhodamine B assay relative to control. The note with it: SF-268, 48 h, read-out: Activity.
Another assay has as its system IGROV-1. Kind of assay: Growth inhibition of human IGROV1 cells assessed as cell growth at 10^-5 M incubated for 48 hrs by sulforhodamine B assay relative to control. The note with it: IGROV-1, 48 h, read-out: Activity.
A further assay deals with CAKI-1. Briefly: Growth inhibition of human Caki1 cells assessed as cell growth at 10^-5 M incubated for 48 hrs by sulforhodamine B assay relative to control. The note with it: CAKI-1, 48 h, read-out: Activity.
In another assay the test system is RPMI-8226. Kind of assay: Growth inhibition of human RPMI8226 cells assessed as cell growth at 10^-5 M incubated for 48 hrs by sulforhodamine B assay relative to control. The note with it: RPMI-8226, 48 h, read-out: Activity.
The subject of a further assay is A549. Kind of assay: Growth inhibition of human A549/ATCC cells assessed as cell growth at 10^-5 M incubated for 48 hrs by sulforhodamine B assay relative to control. The note with it: A549, 48 h, read-out: Activity.
Another assay concerns UACC-257. Briefly: Growth inhibition of human UACC257 cells assessed as cell growth at 10^-5 M incubated for 48 hrs by sulforhodamine B assay relative to control. The note with it: UACC-257, 48 h, read-out: Activity.
The subject of another assay is BT-549. Briefly: Growth inhibition of human BT549 cells assessed as cell growth at 10^-5 M incubated for 48 hrs by sulforhodamine B assay relative to control. The note with it: BT-549, 48 h, read-out: Activity.
Another assay relates to SR. Kind of assay: Growth inhibition of human SR cells assessed as cell growth at 10^-5 M incubated for 48 hrs by sulforhodamine B assay relative to control. The note with it: read-out: Activity.
For another assay, the system named is HCT-15. Kind of assay: Growth inhibition of human HCT15 cells assessed as cell growth at 10^-5 M incubated for 48 hrs by sulforhodamine B assay relative to control. The note with it: HCT-15, 48 h, read-out: Activity.
For another assay, the system named is SK-MEL-5. Kind of assay: Growth inhibition of human SK-MEL-5 cells assessed as cell growth at 10^-5 M incubated for 48 hrs by sulforhodamine B assay relative to control. The note with it: SK-MEL-5, 48 h, read-out: Activity.
Assay [1] relates to MDA-MB-435. Briefly: Growth inhibition of human MDA-MB-435 cells assessed as cell growth at 10^-5 M incubated for 48 hrs by sulforhodamine B assay relative to control. The note with it: MDA-MB-435, 48 h, read-out: Activity.
Another assay relates to CCRF-CEM. Kind of assay: Growth inhibition of human CCRF-CEM cells assessed as cell growth at 10^-5 M incubated for 48 hrs by sulforhodamine B assay relative to control. The note with it: read-out: Activity.
For another assay, the system named is COLO 205. Kind of assay: Growth inhibition of human COLO205 cells assessed as cell growth at 10^-5 M incubated for 48 hrs by sulforhodamine B assay relative to control. The note with it: COLO 205, 48 h, read-out: Activity.
The next assay has as its system OVCAR-8. Briefly: Growth inhibition of human OVCAR8 cells assessed as cell growth at 10^-5 M incubated for 48 hrs by sulforhodamine B assay relative to control. The note with it: OVCAR-8, 48 h, read-out: Activity.
A further assay has as its system SK-MEL-28. Briefly: Growth inhibition of human SK-MEL-28 cells assessed as cell growth at 10^-5 M incubated for 48 hrs by sulforhodamine B assay relative to control. The note with it: SK-MEL-28, 48 h, read-out: Activity.
The subject of a further assay is OVCAR-4. Kind of assay: Growth inhibition of human OVCAR4 cells assessed as cell growth at 10^-5 M incubated for 48 hrs by sulforhodamine B assay relative to control. The note with it: OVCAR-4, 48 h, read-out: Activity.
In another assay the test system is MOLT-4. Briefly: Growth inhibition of human MOLT4 cells assessed as cell growth at 10^-5 M incubated for 48 hrs by sulforhodamine B assay relative to control. The note with it: MOLT-4, 48 h, read-out: Activity.
Another assay deals with SNB-75. Kind of assay: Growth inhibition of human SNB75 cells assessed as cell growth at 10^-5 M incubated for 48 hrs by sulforhodamine B assay relative to control. The note with it: SNB-75, 48 h, read-out: Activity.
The test system of another assay is HOP-62. Briefly: Growth inhibition of human HOP62 cells assessed as cell growth at 10^-5 M incubated for 48 hrs by sulforhodamine B assay relative to control. The note with it: HOP-62, 48 h, read-out: Activity.
The test system of the next assay is NCI-H23. Briefly: Growth inhibition of human NCI-H23 cells assessed as cell growth at 10^-5 M incubated for 48 hrs by sulforhodamine B assay relative to control. The note with it: NCI-H23, 48 h, read-out: Activity.
The test system of assay [2] is RXF 393. Kind of assay: Growth inhibition of human RXF393 cells assessed as cell growth at 10^-5 M incubated for 48 hrs by sulforhodamine B assay relative to control. The note with it: RXF 393, 48 h, read-out: Activity.
The next assay deals with KM12. Briefly: Growth inhibition of human KM12 cells assessed as cell growth at 10^-5 M incubated for 48 hrs by sulforhodamine B assay relative to control. The note with it: KM12, 48 h, read-out: Activity.
Assay [3] concerns RXF 393. Briefly: Growth inhibition of human RXF393 cells assessed as cell growth at 1 uM incubated for 48 hrs by sulforhodamine B assay relative to control. The note with it: RXF 393, 48 h, read-out: Activity.
Assay [4] deals with MDA-MB-435. Kind of assay: Growth inhibition of human MDA-MB-435 cells assessed as cell growth at 0.1 uM incubated for 48 hrs by sulforhodamine B assay relative to control. The note with it: MDA-MB-435, 48 h, read-out: Activity.
The next assay relates to HCC 2998. Briefly: Growth inhibition of human HCC2998 cells assessed as cell growth at 0.01 uM incubated for 48 hrs by sulforhodamine B assay relative to control. The note with it: HCC 2998, 48 h, read-out: Activity.
Assay [5] deals with NCI/ADR-RES. Kind of assay: Growth inhibition of human NCI-ADR-RES cells assessed as cell growth at 100 uM incubated for 48 hrs by sulforhodamine B assay relative to control. The note with it: read-out: Activity.
In assay [6] the test system is NCI/ADR-RES. Kind of assay: Growth inhibition of human NCI-ADR-RES cells assessed as cell growth at 0.1 uM incubated for 48 hrs by sulforhodamine B assay relative to control. The note with it: read-out: Activity.

With `Cc1ccc(S(=O)(=O)N2CCc3c([nH]c4ccccc34)C2c2ccc(-c3nc4ccccc4[nH]3)cc2)cc1` (stereo not given), the growth at 10 µM in the assay on NCI-H322M stood at 87.7%; in the assay with UO-31, 66.7%; with DU-145, 101%; in the assay with SW-620, 90.1%; in the assay on SN12C, 87.7%; with SF-268 it was 91.3%. Moreover, the growth at 10 µM turned out to be 86.5% with IGROV-1; 73.5% in the assay with CAKI-1; 99.1% with RPMI-8226; 92.8% with A549; 102% in the assay on UACC-257; 77.1% in the assay on BT-549. For the same compound, the growth at 10 µM with SR is 97.2%; in the assay on HCT-15, 94.3%; in the assay with SK-MEL-5, 89.8%; in the assay on MDA-MB-435 [1] it was 93.4%; in the assay with CCRF-CEM, 106%; in the assay with COLO 205 it was 92.1%. Moreover, the growth at 10 µM was determined as 98.2% in the assay on OVCAR-8; 86% in the assay on SK-MEL-28; 85.8% in the assay on OVCAR-4; 95.9% in the assay on MOLT-4; 74% in the assay with SNB-75; 94.3% in the assay with HOP-62. Besides, the growth at 10 µM was 85.7% with NCI-H23, 96.4% with RXF 393 [2] and 86.8% in the assay with KM12.
With `c1ccc2c3c([nH]c2c1)C(c1ccc(C2NCCc4c2[nH]c2ccccc42)cc1)NCC3` (racemic), the growth at 10 µM with CAKI-1 was -51%; in the assay on BT-549 it was 57 to 86.9%; in the assay with OVCAR-8, -41.5%. The growth at 1 µM with RXF 393 [3] was determined as 69%. Also, the growth at 0.1 µM in the assay with MDA-MB-435 [4] turned out to be 99%; in the assay on NCI/ADR-RES [6], 93%. The growth at 0.01 µM in the assay with HCC 2998 was 91%. For the same compound, in the assay on NCI/ADR-RES [5], the growth at 100 µM is -30%.
Regarding `c1ccc2[nH]c(-c3ccc(-c4nccc5c4[nH]c4ccccc45)cc3)nc2c1`, the growth at 10 µM was 19 to 67.4% with DU-145; 60.9% in the assay on SN12C; 52.2% in the assay with SF-268; 25 to 94.5% with IGROV-1; 21 to 45.7% with A549; 16 to 62.6% in the assay on SK-MEL-5. The growth at 10 µM in the assay with OVCAR-8 lay within 4 to 16.5%; in the assay on HOP-62, 2 to 86.1%; in the assay on NCI-H23 it was 18 to 69.1%; with KM12, 19 to 76.6%. Moreover, the growth at 1 µM in the assay with RXF 393 [3] is 104%. Further, the growth at 0.1 µM worked out at 93% in the assay with MDA-MB-435 [4] and 98% in the assay on NCI/ADR-RES [6]. Besides, the growth at 0.01 µM in the assay with HCC 2998 was determined as 96%. The growth at 100 µM in the assay with NCI/ADR-RES [5] is 45%.
